Measurements taken from PubChem BioAssay AID2060612 (Molecular Pharmacology Branch, DTP, NCI, 2025).
Values joined by “and” are separate entries in the source; they are usually repeats but may differ in a detail not shown here. Equal values may be shown once.

Tested on: 565232-114-T-J1-PDC complex spheroid viability
Experiment: Anticancer human tumor 565232-114-T-J1-PDC patient-derived bladder carcinoma cell line growth inhibition [CLK]
Settings: for viability, T/C: stronger effect = lower value
Excerpt: A high-throughput screen of multi-cell type tumor spheroids was designed to identify active combinations of […] and targeted small molecules. Complex spheroids include a stromal component modeled by human endothelial cells (HUVEC) and fibroblasts modeled by human mesenchymal stem cells (MSCs). The concentration ranges selected for each drug and investigational agent were based upon clinically achievable concentrations if the clinical Cmax of the agent was known.
Compounds. The drugs and investigational agents: cirtuvivint (SM08502; NSC835563), CC-671 (NSC850746), vemurafenib (NSC761431), tapotoclax (NSC804041), sotorasib (NSC818433), adagrasib (NSC831453), MRTX-1133 (NSC836407), BAY2416964 (NSC825713), copanlisib (NSC816437), inavolisib (NSC800729), abemaciclib (NSC768073), osimertinib (NSC779217), entinostat (NSC756642), eltanexor (KPT-8602, NSC794443), venetoclax (NSC766270), ceralasertib (NSC777638), bortezomib (NSC756655), olaparib (NSC753686), talazoparib (NSC767125), alisertib (NSC759677), peposertib (NSC802822), gemcitabine (NSC613327), 5-fluorouracil (NSC19893), SN-38 (NSC673596), oxaliplatin (NSC266046), paclitaxel (NSC125973), and doxorubicin (NSC123127), were obtained from the National Cancer Institute (NCI) Developmental Therapeutics Program Chemical Repository. The FDA-approved anticancer drug set is available from the Developmental Therapeutics Program at https://dtp.cancer.gov/organization/dscb/obtaining/available plates.htm. […] The stock solutions were prepared in dimethyl sulfoxide (DMSO, Sigma-Aldrich, St. Louis, MO, cat. D2650), except for the platinum complexes which were prepared in saline (Quality Biological, Gaithersburg, MD, cat. 114-055-101), at 800-fold the tested concentration and stored at -70 degrees C prior to their use. All drugs and investigational agents were tested over a range starting from a high concentration at or near the clinical Cmax and decreasing in half-log increments. If the clinical Cmax for an agent had not been determined, the highest concentration tested was 10 microM.
Cell Culture. All cells were maintained in an incubator at 37 degrees C and 5% CO2 with 95% humidity. The PDC lines were cultured according to standard operating procedures established by the NCI PDMR. Briefly, all PDCs were thawed and cultured in Matrigel-coated flasks prepared with a working solution of 1X Ham's F-12 nutrient mix, without supplementation (Invitrogen, Waltham, MA, cat. 11765054), 100 U/mL penicillin-streptomycin (Invitrogen, cat. 15140122), and 2.5% Matrigel (Corning Inc., Corning, NY, cat. 354248) for the first three passages. The 947758-054-R-J2-PDC line was cultured in 6B/Colon 1A media, which includes advanced DMEM/F-12 (Thermo Fisher Scientific, cat. 12634028), 10 mM HEPES (Thermo Fisher Scientific, cat. 15630080), 1X GlutaMAX supplement (Thermo Fisher Scientific, cat. 35050061), 0.1 mg/mL primocin (InvivoGen, cat. ant-pm-2), 10% defined fetal bovine serum, heat inactivated (HyClone Laboratories Inc., cat. SH30070.03HI), 1.25 mM N-Acetyl-L-cysteine (Sigma-Aldrich, cat. A9165), 10 mM nicotinamide (Sigma-Aldrich, cat. N0636), 1X B-27 supplement (Thermo Fisher Scientific, cat. 17504044), 1X N-2 supplement (Thermo Fisher Scientific, cat. 17502048), and 10 microM Y-27632 dihydrochloride (Tocris Bioscience, cat. 1254). The 876862-298-R-J1-PDC was cultured in 6E media, which includes all 6B/Colon 1A media components plus 50% L-WRN conditioned media (ATCC, cat. CRL-3276), 50 ng/mL recombinant human EGF recombinant protein (hEGF; Thermo Fisher Scientific, cat. PHG0311), 10 ng/mL recombinant human fibroblast growth factor 10 (hGFG-10; PeproTech, cat. 100-26), 1 ng/mL recombinant human fibroblast growth factor 2 (hFGF-2; PeproTech, cat. 100-18B), and 1 µM prostaglandin E2 (PGE2; Tocris, cat. 2296). The 227483-062-R1-J1-PDC line was cultured in Panc media, containing all 6E components except hFGF-2, with the addition of 500 nM SB-431542 (Selleckchem, cat. S1067) and 10 nM gastrin (Tocris, cat. 3006). […]

[1] = curve of first compound, second compound 0.0316 µM
[2] = curve of first compound, second compound 0.1 µM
[3] = curve of first compound, second compound 0.316 µM
[4] = curve of first compound, second compound 1 µM
[5] = curve of first compound, second compound 3.16 µM
[6] = curve of first compound, second compound 10 µM
[7] = second compound 0.0316 µM, first compound 0.0316 µM
[8] = second compound 0.0316 µM, first compound 0.1 µM
[9] = second compound 0.0316 µM, first compound 0.316 µM
[10] = second compound 0.0316 µM, first compound 1 µM
[11] = second compound 0.0316 µM, first compound 3.16 µM
[12] = second compound 0.0316 µM, first compound 10 µM
[13] = second compound 0.1 µM, first compound 0.0316 µM
[14] = second compound 0.1 µM, first compound 0.1 µM
[15] = second compound 0.1 µM, first compound 0.316 µM
[16] = second compound 0.1 µM, first compound 1 µM
[17] = second compound 0.1 µM, first compound 3.16 µM
[18] = second compound 0.1 µM, first compound 10 µM
[19] = second compound 0.316 µM, first compound 0.0316 µM
[20] = second compound 0.316 µM, first compound 0.1 µM
[21] = second compound 0.316 µM, first compound 0.316 µM
[22] = second compound 0.316 µM, first compound 1 µM
[23] = second compound 0.316 µM, first compound 3.16 µM
[24] = second compound 0.316 µM, first compound 10 µM
[25] = second compound 1 µM, first compound 0.0316 µM
[26] = second compound 1 µM, first compound 0.1 µM
[27] = second compound 1 µM, first compound 0.316 µM
[28] = second compound 1 µM, first compound 1 µM
[29] = second compound 1 µM, first compound 3.16 µM
[30] = second compound 1 µM, first compound 10 µM
[31] = second compound 3.16 µM, first compound 0.0316 µM
[32] = second compound 3.16 µM, first compound 0.1 µM
[33] = second compound 3.16 µM, first compound 0.316 µM
[34] = second compound 3.16 µM, first compound 1 µM
[35] = second compound 3.16 µM, first compound 3.16 µM
[36] = second compound 3.16 µM, first compound 10 µM
[37] = second compound 10 µM, first compound 0.0316 µM
[38] = second compound 10 µM, first compound 0.1 µM
[39] = second compound 10 µM, first compound 0.316 µM
[40] = second compound 10 µM, first compound 1 µM
[41] = second compound 10 µM, first compound 3.16 µM
[42] = second compound 10 µM, first compound 10 µM
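Further: spheroids exposed to compounds for 7 days before readout.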
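Wherever viability, T/C is given: 100% = DMSO vehicle wells with luminescence normalized to vehicle control.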

For `CNC(=O)c1ccc(Nc2nc(OC3CCCC3)c3c(-c4ccc5nc(C)oc5c4)c[nH]c3n2)c(OC)c1`, the viability, T/C (compound 0.1 µM) was 54.9% [middle of 12 runs], the viability, T/C (compound 0.316 µM) was 34.4% [middle of 12 runs] and the viability, T/C (compound 1 µM) was 22.6% [middle of 12 runs]. For the same compound, the viability, T/C (compound 3.16 µM) was 16% [middle of 12 runs], the viability, T/C (compound 10 µM) was 15.4% [middle of 12 runs] and the IC50 (compound alone, run of 08/01/2023) was 130 nM [middle of 12 runs].

With `COc1ccc([C@@H](O)c2cc(-c3ncnc4cc(N5CCOCC5)ccc34)c(F)cc2Cl)nn1` the viability, T/C (compound 0.0316 µM) was 106% and 119%, the viability, T/C (compound 0.1 µM) was 88.3% and 115% and the viability, T/C (compound 0.316 µM) was 98.2% and 98.9%. The viability, T/C (compound 1 µM) was 102% and 77.9%, the viability, T/C (compound 3.16 µM) was 77.2% and 117% and the viability, T/C (compound 10 µM) was 99.1% and 81.8%. For the same compound, the IC50 (curve of compound) was greater than 10000 nM.

For `COc1cccc2c1C(=O)c1c(O)c3c(c(O)c1C2=O)CC(O)(C(=O)CO)CC3OC1CC(N)C(O)C(C)O1` (centres undefined), the viability, T/C (compound 0.0316 µM) was 93.4% and 109%, the viability, T/C (compound 0.1 µM) was 85.3% and 45.3% and the viability, T/C (compound 0.316 µM) was 78.4% and 15.7%. For the same compound, the viability, T/C (compound 1 µM) was 16.1% and 0.8%, the viability, T/C (compound 3.16 µM) was 0.18% and 0.27% and the viability, T/C (compound 10 µM) was 0.14% and 0.26%. The IC50 (curve of compound) was 533 nM and 92.5 nM.

`C#Cc1c(F)ccc2cc(O)cc(-c3ncc4c(N5CC6CCC(C5)N6)nc(OCC56CCCN5CC(F)C6)nc4c3F)c12` (centres undefined) + CN1CCN(c2cc(C(=O)Nc3cc4cc(-c5cnn(C)c5)ccc4cn3)ccn2)CC1 showed an IC50 [1] greater than 10000 nM, an IC50 [2] greater than 10000 nM and an IC50 [3] of less than 31.6 nM. It also gave an IC50 [4] of less than 31.6 nM, an IC50 [5] of less than 31.6 nM and an IC50 [6] of less than 31.6 nM. The viability, T/C [7] was 104%, the viability, T/C [8] was 75.3% and the viability, T/C [9] was 106%. The viability, T/C [10] was 113%, the viability, T/C [11] was 93.2% and the viability, T/C [12] was 101%. The viability, T/C [13] was 96.8%, the viability, T/C [14] was 76.8% and the viability, T/C [15] was 102%. It also gave a viability, T/C [16] of 86%, a viability, T/C [17] of 101% and a viability, T/C [18] of 107%. The viability, T/C [19] was 25%, the viability, T/C [20] was 29.1% and the viability, T/C [21] was 26.9%. It also gave a viability, T/C [22] of 28.1%, a viability, T/C [23] of 21.8% and a viability, T/C [24] of 21.1%. It also gave a viability, T/C [25] of 0.26%, a viability, T/C [26] of 0.25% and a viability, T/C [27] of 0.72%. The viability, T/C [28] was 0.3%, the viability, T/C [29] was 1.23% and the viability, T/C [30] was 0.75%. The viability, T/C [31] was 0.23%, the viability, T/C [32] was 3.14% and the viability, T/C [33] was 0.23%. It also gave a viability, T/C [34] of 0.18%, a viability, T/C [35] of 2.07% and a viability, T/C [36] of 0.17%. It also gave a viability, T/C [37] of 0.21%, a viability, T/C [38] of 1.2% and a viability, T/C [39] of 2.26%. The viability, T/C [40] was 0.7%, the viability, T/C [41] was 3.78% and the viability, T/C [42] was 0.83%.

In the case of `CC(CO)NC(=O)c1cc(-c2ccc(Cl)cc2)nn(-c2cnn(C)c2)c1=O` (centres undefined) + CN1CCN(c2cc(C(=O)Nc3cc4cc(-c5cnn(C)c5)ccc4cn3)ccn2)CC1, the IC50 [1] is reported as greater than 10000 nM, the IC50 [2] is reported as greater than 10000 nM and the IC50 [3] is reported as less than 31.6 nM. It also gave an IC50 [4] of less than 31.6 nM, an IC50 [5] of less than 31.6 nM and an IC50 [6] of less than 31.6 nM. It also gave a viability, T/C [7] of 104%, a viability, T/C [8] of 73.7% and a viability, T/C [9] of 86.5%. It also gave a viability, T/C [10] of 86.2%, a viability, T/C [11] of 93.7% and a viability, T/C [12] of 103%. The viability, T/C [13] was 92%, the viability, T/C [14] was 91% and the viability, T/C [15] was 96.7%. It also gave a viability, T/C [16] of 89.7%, a viability, T/C [17] of 124% and a viability, T/C [18] of 120%. The viability, T/C [19] was 22.2%, the viability, T/C [20] was 21% and the viability, T/C [21] was 27.3%. For the same compound, the viability, T/C [22] was 23.4%, the viability, T/C [23] was 24.6% and the viability, T/C [24] was 26.9%. For the same compound, the viability, T/C [25] was 0.2%, the viability, T/C [26] was 2.31% and the viability, T/C [27] was 1.11%. It also gave a viability, T/C [28] of 0.21%, a viability, T/C [29] of 2.03% and a viability, T/C [30] of 3.08%. The viability, T/C [31] was 0.21%, the viability, T/C [32] was 0.65% and the viability, T/C [33] was 4.15%. For the same compound, the viability, T/C [34] was 0.22%, the viability, T/C [35] was 2.88% and the viability, T/C [36] was 2.53%. For the same compound, the viability, T/C [37] was 0.26%, the viability, T/C [38] was 0.28% and the viability, T/C [39] was 2.2%. For the same compound, the viability, T/C [40] was 1.23%, the viability, T/C [41] was 4.13% and the viability, T/C [42] was 3.6%.
